Source: patent US10174013B2, “Benzimidazole derivatives as kinase inhibitors” (SELVITA S.A., priority 2012, dated 2019)
Structures can show the parent of a compound that is named as a salt. Where two headings read alike, the source gives them in different places.

How the values were obtained:
[1] = target: CDK2/E (Homo sapiens (Human), UniProt P24941); assay: ADP-Glo Kinase Assay, CDK2/E; format: biochemical; conditions: 1 μM compound; for inhibition at 1 µM: read-out: CDK2/E % INH (1 μM)
Procedure, shortened: (§1)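 Buffer was MOPS 5 mM (pH 7.5) with MgCl2, EDTA and DTT; ATP set at apparent Km per kinase. Compounds were diluted in assay buffer to 1000 nM. Kinase-generated ADP was converted to luciferase signal and normalised to percent inhibition.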

[2] = test system: MV4-11 xenograft; assay: MV4-11 xenograft in immunocompromised mice; format: in vivo
Procedure, shortened: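 MV4-11 leukemic cells engrafted in NOD/scid or SCID/beige mice; oral dosing started at tumor volume approx. 50-200 mm^3, daily QD or BID for 2-3 weeks. Efficacy read as tumor growth inhibition (TGI), tolerability as body weight change (ΔBW).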

[3] = target: DYRK1 (Homo sapiens (Human), UniProt Q13627); assay: ADP-Glo Kinase Assay, DYRK1; format: biochemical; conditions: 1 μM compound; for inhibition at 1 µM: read-out: DYRK1A % INH (1 μM)
Procedure, shortened: as §1

[4] = test system: HepG2 cells; assay: Growth inhibition, MTS assay, HepG2; format: cell-based, Human; conditions: MTS cell viability, read-out: HepG2 ED50
[5] = test system: HEL92 cells; assay: Growth inhibition, MTS assay, HEL92; format: cell-based, Human; conditions: MTS cell viability, read-out: HEL92 ED50
[6] = target: Pim-1 (Homo sapiens (Human), UniProt P11309); assay: ADP-Glo Kinase Assay, Pim-1; format: biochemical; conditions: 1 μM compound; for inhibition at 1 µM: read-out: Pim-1 % INH (1 μM)
Pim-1, sequence (P11309 whole entry): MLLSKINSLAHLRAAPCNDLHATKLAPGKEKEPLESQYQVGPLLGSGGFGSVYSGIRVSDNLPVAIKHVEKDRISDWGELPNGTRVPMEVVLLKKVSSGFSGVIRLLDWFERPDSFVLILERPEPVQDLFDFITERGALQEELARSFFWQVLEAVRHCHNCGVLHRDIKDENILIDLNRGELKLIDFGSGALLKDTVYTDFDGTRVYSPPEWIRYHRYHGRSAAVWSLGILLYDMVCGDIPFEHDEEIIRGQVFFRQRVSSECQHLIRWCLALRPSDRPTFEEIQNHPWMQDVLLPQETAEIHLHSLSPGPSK
Procedure, shortened: as §1

[7] = target: FLT3wt (Homo sapiens (Human), UniProt P36888); assay: ADP-Glo Kinase Assay, Flt3 wt; format: biochemical; conditions: 1 μM compound; for inhibition at 1 µM: read-out: Flt3wt % INH (1 μM)
FLT3wt, sequence (P36888 27-993): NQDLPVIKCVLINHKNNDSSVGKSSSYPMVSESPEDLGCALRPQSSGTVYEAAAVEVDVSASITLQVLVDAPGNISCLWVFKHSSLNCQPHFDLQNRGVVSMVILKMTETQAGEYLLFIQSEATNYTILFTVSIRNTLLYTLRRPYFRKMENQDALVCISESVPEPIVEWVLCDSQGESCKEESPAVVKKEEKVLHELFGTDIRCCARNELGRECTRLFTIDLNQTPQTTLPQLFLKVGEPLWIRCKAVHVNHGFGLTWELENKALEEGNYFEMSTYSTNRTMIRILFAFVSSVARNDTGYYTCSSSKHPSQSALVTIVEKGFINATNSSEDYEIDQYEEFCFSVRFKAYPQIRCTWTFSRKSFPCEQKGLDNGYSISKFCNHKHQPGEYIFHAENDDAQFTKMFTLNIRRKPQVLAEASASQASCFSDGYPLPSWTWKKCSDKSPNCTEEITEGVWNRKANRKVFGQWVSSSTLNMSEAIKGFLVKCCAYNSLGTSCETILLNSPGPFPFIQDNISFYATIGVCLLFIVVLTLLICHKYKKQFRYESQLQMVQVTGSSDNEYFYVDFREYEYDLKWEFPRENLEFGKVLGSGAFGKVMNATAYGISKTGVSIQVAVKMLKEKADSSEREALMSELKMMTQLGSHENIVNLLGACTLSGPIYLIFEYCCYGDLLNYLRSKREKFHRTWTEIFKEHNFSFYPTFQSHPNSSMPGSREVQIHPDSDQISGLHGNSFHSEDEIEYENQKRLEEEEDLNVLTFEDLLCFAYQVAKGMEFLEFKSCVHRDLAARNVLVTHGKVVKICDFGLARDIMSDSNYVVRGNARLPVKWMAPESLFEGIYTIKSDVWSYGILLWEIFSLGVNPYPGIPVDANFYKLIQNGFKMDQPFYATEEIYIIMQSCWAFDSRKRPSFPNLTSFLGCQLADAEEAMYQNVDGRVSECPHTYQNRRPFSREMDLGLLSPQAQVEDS
Procedure, shortened: as §1

[8] = MV4-11 xenograft, oral, 75 mg/Kg BID
[9] = MV4-11 xenograft, oral, doses as in Table 3
[10] = MV4-11 xenograft, oral, 100 mg/Kg QD
[11] = MV4-11 xenograft, oral, 150 mg/Kg QD
[12] = MV4-11 xenograft, oral, 150 mg/Kg BID

| Compound | inhibition at 1 µM [1] [%] | TGI (tumor growth inhibition) [2, 9] | inhibition at 1 µM [3] [%] | inhibition at 1 µM [6] [%] | inhibition at 1 µM [7] [%] | TGI (tumor growth inhibition) [2, 11] [%] | ΔBW (body weight change) [2, 11] [%] | IC50 ([4]; Homo sapiens, HepG2, 72 h) [µM] | IC50 ([5]; Homo sapiens, 72 h) [µM] | also measured |
| --- | --- | --- | --- | --- | --- | --- | --- | --- | --- | --- |
| CCn1c(N2CCNCC2)nc2c([N+](=O)[O-])c(Br)c(Br)cc21 [Example 1A, 5,6-dibromo-1-ethyl-4-nitro-2-(piperazin-1-yl)-1H-1,3-benzodiazole hydrochloride] | < 5 | more than 70% | 66 | 81 | 26 |  |  |  |  | TGI (tumor growth inhibition) [2, 8]: 73%; ΔBW (body weight change) [2, 8]: 5.4%; IC50 ([4]; Homo sapiens, HepG2, 72 hours): 1.3 µM; IC50 ([5]; Homo sapiens, 72 hours): 2.6 µM |
| CC(C)n1c(N2CCNC[C@H]2C)nc2c([N+](=O)[O-])c(Br)c(Br)cc21 [Example 1AX] |  | exceeding 97% |  |  |  |  |  |  |  | TGI (tumor growth inhibition) [2, 10]: 97%; ΔBW (body weight change) [2, 10]: −2.2%; DYRK1A % INH (1 μM) [3]: >95%; IC50 ([4]; 72 hours): 0.1 µM; IC50 ([5]; 72 hours): 0.1 µM; Pim-1 % INH (1 μM) [6]: >95%; Flt3wt % INH (1 μM) [7]: 83% |
| CC(C)n1c(N2CC[C@@H](N)C2)nc2c(C#N)c(Br)c(Br)cc21 [Example 1BI] | 22 | above 87% | 79 | > 95 | 27 | 87 | 3.8 | 1.5 | 5.1 |  |
| CCCn1c(N2CCNCC2)nc2c([N+](=O)[O-])c(Br)c(Br)cc21 [Example 1M] |  | more than 70% |  |  |  |  |  |  |  | CDK2/E % INH (1 μM) [1]: <5%; TGI (tumor growth inhibition) [2, 12]: 76%; ΔBW (body weight change) [2, 12]: 9.2%; DYRK1A % INH (1 μM) [3]: >95%; IC50 ([4]; 72 hours): 1.8 µM; IC50 ([5]; 72 hours): 2.2 µM; Pim-1 % INH (1 μM) [6]: >95%; Flt3wt % INH (1 μM) [7]: 46% |
| CC(C)n1c(N2CCNCC2)nc2c([N+](=O)[O-])c(Br)c(Br)cc21 [Example 2A, 5,6-dibromo-4-nitro-2-(piperazin-1-yl)-1-(propan-2-yl)-1H-1,3-benzodiazole hydrochloride] | 44 | exceeding 97% | > 95 | > 95 | 66 | 99 | −4.4 | 0.6 | 0.7 |  |
| Cl.O=[N+]([O-])c1c(Br)c(Br)cc2c1nc(N1CCNCC1)n2C1CCCC1 [Example 2D, 5,6-dibromo-1-cyclopentyl-4-nitro-2-(piperazin-1-yl)-1H-1,3-benzodiazole hydrochloride] | 21 | above 87% | > 95 | > 95 | 55 | 88 | −3.5 | 0.7 | 4.7 |  |
| CC(C)n1c(C2CCNCC2)nc2c([N+](=O)[O-])c(Br)c(Br)cc21 [Example 26A, 5,6-dibromo-4-nitro-2-(piperidin-4-yl)-1-(propan-2-yl)-1H-1,3-benzodiazole] | 36 |  | > 95 | > 95 | 65 |  |  | 0.6 | 0.9 | ΔBW (body weight change) ([2]; MV-4-11 xenograft, 26A 25 mg/Kg BID): −6%; TGI (tumor growth inhibition) ([2]; MV-4-11 xenograft, 26A 25 mg/Kg BID, 15 days): 77%; ΔBW (body weight change) ([2]; MV-4-11 xenograft, 26A 50 mg/Kg BID): −3%; TGI (tumor growth inhibition) ([2]; MV-4-11 xenograft, 26A 50 mg/Kg BID, 15 days): 87% |
